Measurements reported in patent publication US20260317367A1, “SALTS INCLUDING CRYSTALLINE SALTS OF 25-HYDROXY-CHOLEST-5-EN-3-SULFATE AND METHODS FOR PREPARING SAME” (Durect Corporation, priority 2022, published 2026).
Counter-ions that a name gives are not always drawn. One block for each compound: values may come before it.

Columns and labels:
Type in all cases: physicochemical
[1] = Solid-state chemical stability of 25HC3S salts at 2-8° C., 60° C. and 80° C. (HPLC assay and degradation products); conditions: for % Impurities, Total / % Impurities, 25-HC: ND = Not Detected; for Overall physical and chemical stability (in words): 60° C.; for % Impurities, 25-HC: 25-Hydroxy-Cholesterol; for % Recovery: vs 2-8° C.; for Physical and chemical solid-state stability (comments) / Stability after 5 weeks at 80° C. (in words): 5 weeks; for Stability after 5 weeks at 80° C. (in words): solid state
How it was run: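 Crystalline 25HC3S salts (~25 mg powder per vial) stored at 2-8° C. or 80° C., pulled at 3 and 6 weeks; some 3-week 2-8° C. vials moved to 60° C. for 1 week. Dissolved in 100% methanol (sonication/vortexing, centrifugation or dilution), then HPLC against 25HC3S sodium standards (0.75-1.25 mg/mL) for assay and degradants.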

[2] = Angle of repose of 25HC3S salts; conditions: for Flow Property per USP<1174> Powder Flow: classification by angle of repose
How it was run: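 About 2 g of salt powder was poured through a 7 mm inner-diameter tube into a 21.14 mm rubber O-ring, forming a cone of fixed diameter. Cone height was measured with calipers and the angle of repose was calculated from it. Flow was classified per USP<1174>.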

[3] = Appearance (color, clumping, flowability) of stored 25HC3S salts
[4] = Solubility of 25HC3S salts after one day at room temperature (HPLC, as free acid); conditions: one day
How it was run: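 25HC3S salts were shaken with excess solid at room temperature for one day in organic solvents or aqueous/biorelevant media (FaSSIF, FeSSIF, FaSSGF), then centrifuged. Supernatants were assayed by HPLC against a free-acid standard curve (11 μg/mL to 1.5 mg/mL); values are mg/mL free acid, LOD 0.0007 mg/mL.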

[5] = Overall rank order of powder flowability (angle of repose and Hausner ratio); conditions: for Powder flowability, overall (in words): angle of repose and compressibility index/Hausner ratio combined; for Angle of Repose Rank Order / Hausner Ratio Rank Order / Overall Rank Order (Total Score): lower is better flow; for Overall Rank Order (Total Score): sum of both ranks
Description: Table C5 was generated by adding the relative rank order of the 25HC3S salts for angle of repose and Hausner ratio results, and creating an Over All Rank Order of the salts powder flowability. The salts with the lower overall rank order score had better powder flowability.

[6] = Final pH of the solubility sample solutions in aqueous media; conditions: for pH of the solubility sample, 0.9% Sodium Chloride: 0.9% sodium chloride (blank 5.8); for pH of the solubility sample, 5% Dextrose: 5% dextrose (blank 4.7); for pH of the solubility sample, FaSSGF: FaSSGF (blank 1.5, 1.6); for pH of the solubility sample, FaSSIF: FaSSIF (blank 6.5, 6.5); for pH of the solubility sample, FeSSIF: FeSSIF (blank 4.9, 5.0); for pH of the solubility sample, Water: water (blank 6.3)
How it was run: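 25HC3S salts shaken as excess-solid suspensions in aqueous media at room temperature (210 motions/min) for one day. Aliquots centrifuged at 12000 rpm for 12–15 min; clear supernatant assayed undiluted by HPLC.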

[7] = 2-8° C., 3 wk, listed as 25HC3S diethanolamine
[8] = 2-8° C., 5 wk, listed as 25HC3S diethanolamine
[9] = 80° C., 3 wk, listed as 25HC3S diethanolamine
[10] = 80° C., 5 wk, listed as 25HC3S diethanolamine
[11] = 80° C., 5 wk, 50400 min, listed as 25HC3S diethanolamine
[12] = listed as 25HC3S diethanolamine
[13] = room temperature, listed as crystalline 25HC3S diethanolamine
[14] = 2-8° C., 3 wk, listed as 25HC3S t-butylammonium
[15] = 2-8° C., 5 wk, listed as 25HC3S t-butylammonium
[16] = 80° C., 3 wk, listed as 25HC3S t-butylammonium
[17] = 80° C., 5 wk, listed as 25HC3S t-butylammonium
[18] = 80° C., 5 wk, 50400 min, listed as 25HC3S t-butylammonium
[19] = listed as 25HC3S t-butylammonium

- Assay ([1]; 2-8° C., 3 wk, 30240 min, listed as 25HC3S diethanolamine): 100.2 % w/w
- % Impurities, Total [1, 7]: 1.8%
- Assay ([1]; 2-8° C., 5 wk, 50400 min, listed as 25HC3S diethanolamine): 107.0 % w/w
- % Impurities, Total [1, 8]: 1.9%
- Overall physical and chemical stability (in words) ([1]; 2-8° C., 80° C.): physically and chemically stable
- Overall physical and chemical stability (in words) ([1]; 2-8° C., 80° C., listed as diethanolamine): relatively stable
- % Impurities, 25-HC [1, 7]: 0.4%
- % Impurities, 25-HC [1, 8]: 0.4%
- % Impurities, 25-HC [1, 9]: 0.9%
- % Impurities, 25-HC [1, 10]: 1.2%
- Stressed stability at 80° C. (in words) ([1]; 80° C.): good, stressed stability
- % Recovery ([1]; 80° C., 3 wk, 30240 min, listed as 25HC3S diethanolamine, 30240 min): 99.4%
- Assay ([1]; 80° C., 3 wk, 30240 min, listed as 25HC3S diethanolamine): 99.6 % w/w
- % Impurities, Total [1, 9]: 2.8%
- % Recovery, 2-8° C./5 wk vs 80° C./5 wk [1, 11]: 97.7%
- Assay [1, 11]: 104.5 % w/w
- % Impurities, Total [1, 10]: 3.5%
- Stability after 5 weeks at 80° C. (in words) ([1]; 80° C.): stable
- Flow Property per USP<1174> Powder Flow [2, 12]: Passable - may hang up
- Angle of Repose [2, 12]: 49.2 degrees
- Angle of Repose, Rounded Whole Number [2, 12]: 49 degrees
- Appearance [3, 7]: White, free flowing powder with clumping
- Appearance ([3]; 2-8° C., 5 wk): White, free flowing powder with clumping
- Appearance [3, 9]: White, free flowing powder with clumping
- Appearance ([3]; 80° C., 5 wk): White, free flowing powder with clumping
- Solubility in FaSSGF (in words) ([4]; room temperature): high solubility
- Solubility in FaSSIF (in words) ([4]; room temperature): high solubility
- Solubility in FaSSIF (in words) [4, 13]: relatively high solubility
- Solubility in FeSSIF (in words) ([4]; room temperature): high solubility
- Solubility in FeSSIF (in words) [4, 13]: relatively high solubility
- Solubility in FeSSIF ([4]; Fed State Simulated Intestinal Fluid, pH 4.9 to 5.0, room temperature, as free acid, 1440 min): 858 µg/mL
- Solubility in methanol (in words) ([4]; MeOH, room temperature): did not reach saturation
- Solubility in saline / 0.9% sodium chloride (in words) ([4]; saline, room temperature, listed as crystalline 25HC3S diethanolamine): low solubility
- Powder flowability, overall (in words) ([5]; listed as diethanolamine): poorer flowability
- Angle of Repose Rank Order [5, 12]: 14
- Hausner Ratio Rank Order [5, 12]: 9
- Overall Rank Order (Total Score) [5, 12]: 23
- pH of the solubility sample, 0.9% Sodium Chloride [6, 12]: 7.9
- pH of the solubility sample, 5% Dextrose [6, 12]: 7.2
- pH of the solubility sample, FaSSGF [6]: 1.6
- pH of the solubility sample, FaSSIF [6, 12]: 6.5
- pH of the solubility sample, FeSSIF [6, 12]: 4.9
- pH of the solubility sample, Water [6, 12]: 8.2
Compound: CC(CCCC(C)(C)O)C1CCC2C3CC=C4CC(OS(=O)(=O)O)CCC4(C)C3CCC12C (stereo not drawn) [Salt #10]
- Physical and chemical solid-state stability (comments) ([1]; 80° C.): Stable after 5 weeks at 80 °C physically and chemically.

- Assay ([1]; 2-8° C., 3 wk, 30240 min, listed as 25HC3S t-butylammonium): 99.8 % w/w
- % Impurities, Total [1, 14]: 1.5%
- Assay ([1]; 2-8° C., 5 wk, 50400 min, listed as 25HC3S t-butylammonium): 106.2 % w/w
- % Impurities, Total [1, 15]: 1.5%
- Overall physical and chemical stability (in words) ([1]; 2-8° C., 80° C.): physically and chemically stable
- Overall physical and chemical stability (in words) ([1]; 2-8° C., 80° C., listed as t-butylammonium): relatively stable
- % Impurities, 25-HC [1, 14]: 0.3%
- % Impurities, 25-HC [1, 15]: 0.3%
- % Impurities, 25-HC [1, 16]: 0.3%
- % Impurities, 25-HC [1, 17]: 0.2%
- Stressed stability at 80° C. (in words) ([1]; 80° C.): good, stressed stability
- % Recovery ([1]; 80° C., 3 wk, 30240 min, listed as 25HC3S t-butylammonium, 30240 min): 99.4%
- Assay ([1]; 80° C., 3 wk, 30240 min, listed as 25HC3S t-butylammonium): 99.2 % w/w
- % Impurities, Total [1, 16]: 1.7%
- % Recovery, 2-8° C./5 wk vs 80° C./5 wk [1, 18]: 98.8%
- Assay [1, 18]: 104.9 % w/w
- % Impurities, Total [1, 17]: 1.6%
- Stability after 5 weeks at 80° C. (in words) ([1]; 80° C.): stable
- Flow Property per USP<1174> Powder Flow [2, 19]: Poor - must agitate,
- Angle of Repose [2, 19]: 46.3 degrees
- Angle of Repose, Rounded Whole Number [2, 19]: 46 degrees
- Appearance [3, 14]: White, free flowing powder with clumping
- Appearance ([3]; 2-8° C., 5 wk): White, free flowing powder with clumping
- Appearance [3, 16]: White, free flowing powder with clumping
- Appearance ([3]; 80° C., 5 wk): White, free flowing powder with clumping
- Solubility in FaSSGF (in words) ([4]; room temperature): high solubility
- Solubility in FaSSIF (in words) ([4]; room temperature): high solubility
- Solubility in FaSSIF (in words) ([4]; room temperature, listed as crystalline 25HC3S t-butylammonium): relatively high solubility
- Solubility in FeSSIF (in words) ([4]; room temperature): high solubility
- Powder flowability, overall (in words) ([5]; listed as t-butylammonium): poorer flowability
- Angle of Repose Rank Order [5, 19]: 13
- Hausner Ratio Rank Order [5, 19]: 8
- Overall Rank Order (Total Score) [5, 19]: 21
- pH of the solubility sample, 0.9% Sodium Chloride [6, 19]: 8.4
- pH of the solubility sample, 5% Dextrose [6, 19]: 7.2
- pH of the solubility sample, FaSSGF [6]: 1.6
- pH of the solubility sample, FaSSIF [6, 19]: 6.5
- pH of the solubility sample, FeSSIF [6]: 5.0
- pH of the solubility sample, Water [6, 19]: 8.5
Compound: CC(CCCC(C)(C)O)C1CCC2C3CC=C4CC(OS(=O)(=O)O)CCC4(C)C3CCC12C (stereo not drawn) [Salt #12]
- Physical and chemical solid-state stability (comments) ([1]; 80° C.): Stable after 5 weeks at 80 °C physically and chemically.
